Several values for one entry are separate records, joined by “and”; a condition that tells them apart may be missing. Identical values can stand only once. Like-named read-outs stand apart in the source and are kept apart here.
Columns and labels:
[1] = tested on: pathogenic P. yoelii sporozoites; assay: Protection of BALB/c mice against pathogenic P. yoelii sporozoite challenge after a single IV dose of irr PySPZ with or without 7DW8-5 IP; assay type: in vivo
Protocol: To determine if the adjuvant 7DW8-5 could decrease the number of doses of irr PySPZ required to confer protection, a suboptimal dosing regimen was performed. irr PySPZ (17NXL) were dissected from the salivary glands of A. stephensi mosquitoes and injected intravenously (IV) into BALB/c mice as a single dose of either of 5×10^4 or 1×10^4 sporozoites. Two μg of 7DW8-5 was concurrently administered intraperitoneally (IP) in some mice. Fourteen days later, mice were challenged with 100 non-irradiated pathogenic P. yoelii sporozoites. Protection was assessed by Giemsa-stained blood smears and was defined as the complete absence of parasitemia 7 and 14 days post infection.
A second experiment was performed to confirm the results shown in Example 1. […] Again, adjuvant in the absence of antigen had no effect.
Using the single dose methodology of Example 1 with radiation attenuated Py sporozoites that have been purified using the purification procedure disclosed in Sim et al. (U.S. Pat. No. 8,043,625, incorporated in its entirety herein by reference) a third experiment was performed. Using 1×10^4 purified sporozoites administered IV in a single dose, 3 out of 10 mice were protected, whereas 7 of 10 mice were protected when the adjuvant was concurrently administered IP.
To determine the optimal single dose of attenuated sporozoites (in conjunction with 7DW8-5 concurrently administered distally IP) that confers protection by the IV route, mice were injected IV with 0, 2500, 5000, 10,000 and 20,000 sporozoites. Two μg of 7DW8-5 were injected IP.

[2] = tested on: pathogenic P. yoelii sporozoites; assay: Protection of BALB/c mice after intradermal immunization with irr PySPZ mixed with 7DW8-5 at base of tail; assay type: in vivo
Protocol: To determine whether protective immunogenicity of attenuated sporozoites is maintained or enhanced in the presence of 7DW8-5, mice were immunized by intradermal (ID) injection alone, with 2 doses at 2-week intervals of 15,000, 10,000, 5,000 and 2,500 sporozoites and unlike Examples 1-5, 1 μg 7DW8-5 was mixed as a composition with sporozoites and the composition of adjuvant and sporozoites was delivered ID at the base of the tail. With 2 doses of 15,000 sporozoites in the presence of adjuvant 100% of the mice were protected, and at lower doses of sporozoites 60-80% of the mice were protected. In the absence of adjuvant, only 40% of mice receiving 2 doses of 15,000 sporozoites were protected.
Protection conferred by a single dose of a composition of 1 μg 7DW8-5 adjuvant and varying amounts of sporozoites delivered ID was measured. For this 15,000 and 30,000 sporozoites were administered to mice ID as described above. These doses were partially protective at 60% and 40% respectively.
The next step in development was to assess purified irr PySPZ BALB/c/mice were immunized with irr PySPZ purified as described, in the presence or absence of 7DW8-5 adjuvant.

[3] = tested on: pathogenic P. yoelii sporozoites; settings: versus α-GalCer, cited from earlier work
iNKT cells [4] = settings: mouse; cited from earlier work
iNKT cells [5] = settings: human; cited from earlier work
[6] = tested on: IFN-γ-secreting CS-specific CD8+ cells; settings: irradiated sporozoites SC with α-GalCer by the same route vs without; cited from earlier work
[7] = pre-loaded autologous PBMCs or direct injection; cited from earlier work
CD1d = CD1d (Homo sapiens, UniProt P15813); settings: cited from earlier work
Chain of CD1d (P15813 20-335, species assumed): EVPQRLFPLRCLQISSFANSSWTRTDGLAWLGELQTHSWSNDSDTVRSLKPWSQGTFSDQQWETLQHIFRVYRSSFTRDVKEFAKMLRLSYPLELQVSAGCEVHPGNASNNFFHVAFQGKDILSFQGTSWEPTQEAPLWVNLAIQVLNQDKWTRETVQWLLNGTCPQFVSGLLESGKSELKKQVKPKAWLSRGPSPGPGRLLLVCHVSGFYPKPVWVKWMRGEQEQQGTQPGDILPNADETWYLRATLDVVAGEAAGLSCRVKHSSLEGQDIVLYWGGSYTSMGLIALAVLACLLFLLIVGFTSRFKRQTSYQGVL
Chain of CD1d (P61769 21-119 partner, species assumed): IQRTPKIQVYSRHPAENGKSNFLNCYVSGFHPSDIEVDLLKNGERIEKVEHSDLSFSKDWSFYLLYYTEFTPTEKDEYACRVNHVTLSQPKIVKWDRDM

[8] = summary of Examples 1-3, one dose irr PySPZ IV, 7DW8-5 IP where given

SMILES | # protected/# challenged ([1]; Example 1, 2 μg 7DW8-5 IP alone, no sporozoites) | # protected/# challenged ([1]; Example 2, 2 μg 7DW8-5 IP alone, no sporozoites) | # protected/# challenged ([1]; Example 3, 2 μg 7DW8-5 IP alone, no sporozoites) | First Challenge # protected/# re-challenged ([1]; Example 4 table, first challenge, 2 μg 7DW8-5 IP alone) | # protected/# challenged ([1]; Example 5, 0 sporozoites, 2 μg 7DW8-5 IP) | percent protected [1, 8] [%] | protected/challenged [1, 8] | # protected/# challenged ([2]; Example 6, 0 sporozoites, 1 μg 7DW8-5 per mouse ID) | protection ([2]; Example 8, adjuvant alone) | malaria-specific humoral response ([3]; co-administered IM with adenovirus vaccine) | malaria-specific CD8+ T cell response ([3]; co-administered IM with suboptimal dose of adenovirus vaccine) | adjuvant effect in enhancing protective efficacy ([3]; single immunizing dose of adenovirus recombinant vaccine) | ability to elicit cytokine production from iNKT cells (iNKT cells [4]) | ability to elicit cytokine production from iNKT cells (iNKT cells [5]) | increase in number of IFN-γ-secreting CS-specific CD8+ cells [6] | safety and tolerability [7] | affinity for CD1d (CD1d) | activation of iNKT cells (iNKT cells [4]) | activation of iNKT cells (iNKT cells [5])
CCCCCCCCCCCCCC[C@@H](O)[C@@H](O)[C@H](COC1OC(CO)C(O)C(O)C1O)NC(=O)CCCCCCCCCCc1ccc(F)cc1 (stereo partly shown) [7DW8-5] | no protection and 0/5 | no effect and 0/5 | 0/5 | 0/5 | 0/5 | 0 | 0/15 | 0/5 | No protection | equally if not slightly stronger than α-GalCer | significantly more than α-GalCer | significantly stronger adjuvant effect than α-GalCer | superior ability | superior ability |  |  |  |  | 
CCCCCCCCCCCCCCCCCCCCCCCCCC(=O)N[C@@H](CO[C@H]1O[C@H](CO)[C@H](O)[C@H](O)[C@H]1O)[C@H](O)[C@H](O)CCCCCCCCCCCCCC [α-GalCer, α-galactosylceramide] |  |  |  |  |  |  |  |  |  |  |  |  |  |  | seven fold | safe and well tolerated | high affinity | potent activator | potent activator

Source: patent US9642909B2, “Pharmaceutical compositions comprising attenuated Plasmodium sporozoites and glycolipid adjuvants” (Sanaria Inc., priority 2011, dated 2017)
